± gives the expanded uncertainty stated by the source.

The values below come from the NIST ThermoML archive (doi:10.1021/je9009283).

The nature of data set [1]: refractive index (Na D-line) (dimensionless). The note with it: 293.1 K; 101.33 kPa; Liquid; Standard Abbe refractometry.
For data set [2] the following is noted: for mass density: 293.1 K, 101.33 kPa, Liquid, Pycnometric method; for Glass transition temperature / Normal melting temperature: DTA; for Normal melting temperature: Crystal.
Data set [3] in a line: Molar enthalpy of transition or fusion. As to conditions: Crystal; DSC.

Usually refractive index stands for a measure of how strongly the sample bends light. Broadly, the mass density is the mass of a sample divided by its volume. Regarding `CCCCCCCC[n+]1cccc(C)c1C.O=S(=O)([O-])C(F)(F)F`, in data set [1], the refractive index amounted to 1.4725 ± 0.0016. Moreover, in data set [2], the mass density was 1180 ± 20 kg/m3 and the Glass transition temperature is -63.0 ± 2 °C.

Regarding `CCCCCCCC[n+]1cccc(C)c1C.O=S(=O)([N-]S(=O)(=O)C(F)(F)F)C(F)(F)F`, the refractive index in data set [1] is recorded as 1.4571 ± 0.01. Moreover, in data set [2], the mass density is recorded as 1290 ± 20 kg/m3 and the Glass transition temperature was -70.0 ± 2 °C.

For `CCCCCCCC[n+]1cc(C)cc(C)c1.N#C[N-]C#N` [3,5-dimethyl-1-octylpyridinium dicyanamide], the refractive index in data set [1] is reported as 1.5196 ± 0.0016. For the same compound, in data set [2], the mass density stood at 1000 ± 20 kg/m3 and the Glass transition temperature is -78.0 ± 2 °C.

For `CCCC[n+]1cc(C)cc(C)c1C.O=S(=O)([O-])C(F)(F)F`, the Normal melting temperature in data set [2] was determined as 74.0 ± 2 °C. Moreover, the “Molar enthalpy of transition or fusion” value in data set [3] is 5.01 ± 0.16 kcal/mol.

Consider `CCCCCCCC[n+]1cc(CC)ccc1C.[I-]` [5-ethyl-2-methyl-1-octylpyridinium iodide], for which, in data set [2], the Normal melting temperature came to 87.0 ± 2 °C and the Glass transition temperature is -33.0 ± 2 °C. Also, in data set [3], the “Molar enthalpy of transition or fusion” value amounted to 7.38 ± 0.217 kcal/mol.

On to `CCCC[n+]1cc(C)cc(C)c1C.O=S(=O)([N-]S(=O)(=O)C(F)(F)F)C(F)(F)F`, for which the refractive index in data set [1] worked out at 1.4583 ± 0.0016. Also, in data set [2], the mass density was 1370 ± 20 kg/m3 and the Glass transition temperature was -74.0 ± 2 °C.

Turning to `CCCCCCCC[n+]1cc(C)cc(C)c1.O=S(=O)([N-]S(=O)(=O)C(F)(F)F)C(F)(F)F`, in data set [1], the refractive index was found to be 1.4526 ± 0.01. For the same compound, in data set [2], the mass density stood at 1280 ± 20 kg/m3 and the Glass transition temperature was -78.0 ± 2 °C.

On to `CCCC[n+]1cc(CC)ccc1C.O=S(=O)([N-]S(=O)(=O)C(F)(F)F)C(F)(F)F`, for which the refractive index in data set [1] worked out at 1.4552 ± 0.0016. In data set [2], the mass density is 1370 ± 20 kg/m3 and the Glass transition temperature is -81.0 ± 2 °C.

With `CCCC[n+]1cc(C)cc(C)c1.N#C[N-]C#N` [1-butyl-3,5-dimethylpyridinium dicyanamide], in data set [1], the refractive index was determined as 1.5278 ± 0.0016. Moreover, in data set [2], the Normal melting temperature was -1.0 ± 2 °C and the Glass transition temperature was -80.0 ± 2 °C. Further, the “Molar enthalpy of transition or fusion” value in data set [3] is 0.92 ± 0.0765 kcal/mol.

On to `CCCCCCCC[n+]1cc(C)cc(C)c1.N#C[S-]` [3,5-dimethyl-1-octylpyridinium thiocyanate], for which the refractive index in data set [1] is 1.5415 ± 0.0016. Besides, in data set [2], the mass density is given as 1000 ± 20 kg/m3, the Normal melting temperature is -38.0 ± 2 °C and the Glass transition temperature was -74.0 ± 2 °C. Besides, the “Molar enthalpy of transition or fusion” value in data set [3] came out at 1.53 ± 0.086 kcal/mol.

As to `CCCCCCCC[n+]1cc(CC)ccc1C.O=S(=O)([N-]S(=O)(=O)C(F)(F)F)C(F)(F)F`, in data set [2], the mass density is 1280 ± 20 kg/m3 and the Glass transition temperature was -78.0 ± 2 °C.

On to `CCCCCCCC[n+]1cc(C)cc(C)c1C.[I-]` [2,3,5-trimethyl-1-octylpyridinium iodide], for which the refractive index in data set [1] was 1.5776 ± 0.0016. The Glass transition temperature in data set [2] was -31.0 ± 2 °C.

As to `CCCCCCCC[n+]1cc(C)cc(C)c1C.N#C[S-]` [2,3,5-trimethyl-1-octylpyridinium thiocyanate], in data set [2], the Normal melting temperature came to 20.0 ± 2 °C and the Glass transition temperature was -58.0 ± 2 °C. Besides, in data set [3], the “Molar enthalpy of transition or fusion” value amounted to 3.5 ± 0.127 kcal/mol.

Regarding `CCCC[n+]1cc(C)cc(C)c1.O=S(=O)([O-])C(F)(F)F`, in data set [2], the mass density worked out at 1390 ± 20 kg/m3 and the Normal melting temperature amounted to 91.0 ± 2 °C. In addition, the “Molar enthalpy of transition or fusion” value in data set [3] was found to be 6.81 ± 0.203 kcal/mol.

Turning to `CCCCCCCC[n+]1cc(C)cc(C)c1.F[B-](F)(F)F` [3,5-dimethyl-1-octylpyridinium tetrafluoroborate], the Normal melting temperature in data set [2] came out at 56.0 ± 2 °C. For the same compound, the “Molar enthalpy of transition or fusion” value in data set [3] worked out at 6.71 ± 0.201 kcal/mol.

As for `CCCC[n+]1cccc(C)c1C.N#C[N-]C#N` [1-butyl-2,3-dimethylpyridinium dicyanamide], the refractive index in data set [1] was found to be 1.5403 ± 0.0016. Besides, the Glass transition temperature in data set [2] is -72.0 ± 2 °C.

For `CCCC[n+]1cccc(C)c1C.O=S(=O)([N-]S(=O)(=O)C(F)(F)F)C(F)(F)F`, in data set [1], the refractive index amounted to 1.4497 ± 0.0016. Moreover, in data set [2], the mass density is on record as 1370 ± 20 kg/m3 and the Glass transition temperature is -81.0 ± 2 °C.

Take `CCCCCCCC[n+]1cccc(C)c1C.N#C[S-]` [2,3-dimethyl-1-octylpyridinium thiocyanate]: the refractive index in data set [1] is given as 1.5489 ± 0.0016. In addition, in data set [2], the mass density is 1020 ± 20 kg/m3 and the Glass transition temperature was -65.0 ± 2 °C.

For the compound `CCCCCCCC[n+]1cc(CC)ccc1C.N#C[N-]C#N` [5-ethyl-2-methyl-1-octylpyridinium dicyanamide], in data set [2], the Normal melting temperature came to 53.0 ± 2 °C and the Glass transition temperature is -59.0 ± 2 °C.

Regarding `CCCC[n+]1cccc(C)c1C.O=S(=O)([O-])C(F)(F)F`, in data set [1], the refractive index amounted to 1.4748 ± 0.0016. For the same compound, in data set [2], the mass density amounted to 1370 ± 20 kg/m3, the Normal melting temperature is 17.0 ± 2 °C and the Glass transition temperature is -69.0 ± 2 °C. For the same compound, the “Molar enthalpy of transition or fusion” value in data set [3] is 4.03 ± 0.139 kcal/mol.

For `CCCCCCCC[n+]1cc(C)cc(C)c1C.O=S(=O)([O-])C(F)(F)F`, in data set [2], the Glass transition temperature was -56.0 ± 2 °C.

For `CCCC[n+]1cc(C)cc(C)c1.O=S(=O)([N-]S(=O)(=O)C(F)(F)F)C(F)(F)F`, the refractive index in data set [1] came to 1.4559 ± 0.0016. In addition, in data set [2], the mass density was 1390 ± 20 kg/m3 and the Glass transition temperature was -73.0 ± 2 °C.

For the compound `CCCCCCCC[n+]1cc(C)cc(C)c1.O=S(=O)([O-])C(F)(F)F`, in data set [2], the Normal melting temperature is 76.0 ± 2 °C. Also, the “Molar enthalpy of transition or fusion” value in data set [3] stood at 5.93 ± 0.182 kcal/mol.

Take `CCCC[n+]1cc(C)cc(C)c1.N#C[S-]` [1-butyl-3,5-dimethylpyridinium thiocyanate]: in data set [2], the Normal melting temperature was found to be 13.0 ± 2 °C and the Glass transition temperature was -57.0 ± 2 °C. In addition, the “Molar enthalpy of transition or fusion” value in data set [3] was 3.83 ± 0.134 kcal/mol.

With `CCCCCCCC[n+]1cc(C)cc(C)c1.[I-]` [3,5-dimethyl-1-octylpyridinium iodide], in data set [2], the Normal melting temperature was 82.0 ± 2 °C and the Glass transition temperature was -41.0 ± 2 °C. In data set [3], the “Molar enthalpy of transition or fusion” value was 6.08 ± 0.186 kcal/mol.

As to `CCCCCCCC[n+]1cc(C)cc(C)c1C.O=S(=O)([N-]S(=O)(=O)C(F)(F)F)C(F)(F)F`, the refractive index in data set [1] is 1.4617 ± 0.0016. Further, in data set [2], the mass density amounted to 1280 ± 20 kg/m3 and the Glass transition temperature is -72.0 ± 2 °C.
